Test results as given in paper PMC11277004, “Di- and Triselenoesters—Promising Drug Candidates for the Future Therapy of Triple-Negative Breast Cancer” (International Journal of Molecular Sciences, 2024).

Legend:
Assay type in all cases: cell-based, human
[1] = test system: MCF-7 and MDA-MB-231 breast cancer cells; assay: Western immunoblot of Akt and AMPK; details: 0.5 and 1 μM, 24 h
Method: (§1) Protein concentrations in the samples were determined using the Lowry method. Samples were prepared containing equal amounts of protein (30 μg/lane) and an appropriate amount of Laemmli buffer (120 mM Tris-HCl, 20% glycerol, 0.4% SDS, and 0.02% bromophenol blue, pH 6.8) containing 100 mM 1,4-dithiothreitol (DTT; Roche, Basel, Switzerland). Samples were denatured at 95 °C for 10 min. The proteins were separated using the SDS-PAGE method described by Laemmli. Proteins were separated on 12% SDS-PAGE gels. […] Transfer conditions were 250 mA, at 4-8 °C, overnight in freshly prepared Towbin buffer. Membranes were blocked with 5% non-fat dried milk (Santa Cruz Biotechnology, Dallas, Texas, USA) in TBS-T (20 mM Tris, 150 mM NaCl, 0.1% Tween-20, pH 7.6) for 1 h at room temperature with gentle shaking. After the blocking step, membranes were washed four times with TBS-T (4 × 15 min) and incubated with primary monoclonal antibodies (against β-actin, p53 (both from Santa Cruz Biotechnology, Dallas, TX, USA), Akt, AMPK (both from BD Transduction Laboratories, San Jose, CA, USA), Bax, caspase 7, and caspase 9 (all from Cell Signaling Technology, Danvers, MA, USA)). Membranes were incubated with primary antibodies overnight at 4 °C. […]

[2] = Viability (MTT) and DNA biosynthesis, summary statements over the tested cell lines; details: human; MTT, 24 h; range over the tested cell lines; read-out: IC50, cytotoxic activity (range over cell lines)
Method: The MTT assay was used to determine the cytotoxic effects of the compounds in the study on MCF-7 and MDA-MB-231 breast cancer cells as well as MCF-10A normal human breast epithelial cells based on Carmichael’s method. All cultured cell lines were treated with varied concentrations of the tested compounds in the medium (0.5–5 µM) and incubated for 24 h in an incubator providing optimal conditions for cell culture growth (37 °C temperature, 5% CO2, and 90–95% humidity) in 6-well plates (baseline seeding density: 5 × 10^5 cells/well). After this time, the medium was removed, and the cell monolayer was washed with warm phosphate-buffered saline (PBS) without calcium and magnesium. In the next step, PBS and MTT solution in PBS (5 mg/mL) were added to each well to obtain a final MTT concentration of 0.5 mg/mL, and then the cells were incubated for 4 h (37 °C temperature, 5% CO2, 90–95% humidity). After the incubation period, the contents of each well were removed, 1 mL of DMSO was added to dissolve the formazan, and then the plate with the added DMSO was mixed for 5–10 min on a microplate shaker (Boeco, Hamburg, Germany). Then, 10 µL of Sorensen’s glycine buffer (a solution of 0.1 M glycine and 0.1 M sodium chloride adjusted to pH 10.5 with 0.1 M sodium hydroxide) was added. The absorbance of the obtained solution was immediately measured at a wavelength of λ = 570 nm using a Thermo Scientific Evolution 201 UV–VIS spectrophotometer (Thermo Fisher Scientific, Waltham, MA, USA). The absorbance result obtained in the control cells (without the addition of the tested compounds) was taken as 100%, while the viability of cells incubated with the tested compounds was presented as a percentage of the control value.
The study of the antiproliferative properties (intensity of [^3H]-thymidine incorporation into cell DNA) of the tested derivatives against tested cell lines (MCF-7, MDA-MB-231, MCF-10A) was performed after 24 h incubation with varied concentrations of the tested compounds in the medium (0.5–5 µM) in 6-well plates (baseline seeding density: 5 × 10^5 cells/well). After 24 h the medium was removed, the cells were washed with PBS (Corning, Kennebunk, ME, USA), and a fresh medium was added. […] Radioactivity was measured using the Scintillation Counter 1900 TR, TRI-CARB (Packard, Perkin Elmer, Inc., San Jose, CA, USA). The intensity of DNA biosynthesis in the analyzed cells was expressed in terms of dpm/well. The result of the radioactivity measurement in the control cells (without the addition of tested compounds) was taken as 100%, while the values of cells incubated with the tested compounds were presented as a percentage of the control value.

[3] = test system: breast cancer cells (MCF-7 and MDA-MB-231); assay: Apoptosis induction, summary statements
Method: (§2) The FITC Annexin V Apoptosis Detection Kit II (BD Pharmingen, San Diego, CA, USA) and a flow cytometer (BD FACSCanto II, BD Biosciences Systems, San Jose, CA, USA) were used in this evaluation. The assay was performed according to the manufacturer’s instructions. Flow cytometer calibration was performed by preparing two controls—a positive and a negative control. […] The negative control was cells that were not treated with any of the proapoptotic agents. First, in the cells treated with the tested compounds as well as the controls, the medium was removed, and the cells were washed twice with cold PBS. Subsequently, the cells were resuspended in the binding buffer included in the kit at a concentration of 1 × 10^6 cells/mL. From each sample, 100 µL of cell suspension was taken and transferred to test tubes, to which 5 µL each of FITC annexin V and propidium iodide (PI) were then added. The contents of the test tubes were gently vortexed and incubated for 15 min at room temperature, protected from light. After the required time, the contents of the test tubes were made up to 500 µL with binding buffer and immediately analyzed in a flow cytometer (10,000 events measured). After the flow cytometer readout, the results were analyzed using the FACSDiva 6.0 software (BD Biosciences Systems, San Jose, CA, USA). […]

[4] = test system: MCF-7 and MDA-MB-231 breast cancer cells; assay: Western immunoblot of Bax, caspase 7 and 9, p53; details: 0.5 and 1 μM, 24 h
Method: as §1

[5] = test system: MCF-10A normal breast epithelial cells; assay: Apoptosis induction, annexin V-FITC/PI flow cytometry, MCF-10A; details: especially at 1 µM, 24 h
Method: as §2

Structure (SMILES)	expression of Akt and AMPK (Western blot, in words) [1]	IC50 at 24 h [2] [µM]	development of necrosis in the breast cancer cell lines (in words) [3]	expression of Bax, caspase 7 and 9, p53 (Western blot, in words) [4]	necrotic cells (in words) [5]
N.N.[Cl][Pt][Cl] [Cisplatin, reference compound]	did not significantly affect				
CC(=O)C[Se]C(=O)c1ccc(C(=O)[Se]CC(C)=O)cc1 [EDAG-1, Se,Se-bis(2-oxopropyl) benzene-1,4-bis(carboselenoate)]		0.41 to 0.71	did not affect the development of necrosis	slightly weaker effect	
CC(=O)C[Se]C(=O)c1cc(C(=O)[Se]CC(C)=O)cc(C(=O)[Se]CC(C)=O)c1 [EDAG-8, Se,Se,Se-tris-(2-oxopropyl) benzene-1,3,5-tris-(carboxyselenoate)]	most active	0.41 to 0.71	did not affect the development of necrosis	most active	increase in the number of necrotic cells
